Source: patent US20080221129A1, “New compounds” (priority 2006, published 2008)

Target: T1, stearoyl-CoA desaturase (SCD) (Rattus norvegicus, UniProt P07308)
T1 construct: 0.032 mg/ml rat liver microsomes (total protein content); from tissue
T1 sequence (P07308 1-358): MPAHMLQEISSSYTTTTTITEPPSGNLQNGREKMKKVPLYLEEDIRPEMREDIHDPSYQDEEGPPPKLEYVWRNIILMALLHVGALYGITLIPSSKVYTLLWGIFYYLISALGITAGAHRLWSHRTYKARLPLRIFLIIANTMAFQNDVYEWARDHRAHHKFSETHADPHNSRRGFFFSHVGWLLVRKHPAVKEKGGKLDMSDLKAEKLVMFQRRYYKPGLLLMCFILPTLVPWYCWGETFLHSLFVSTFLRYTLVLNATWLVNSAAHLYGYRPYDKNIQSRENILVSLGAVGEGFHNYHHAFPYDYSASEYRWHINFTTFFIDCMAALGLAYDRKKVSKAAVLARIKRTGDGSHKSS
Experiment: Tritium release screening assay for inhibition of stearoyl-CoA desaturase activity in rat liver microsomes
Assay type: biochemical, rat (Male Sprague-Dawley)
Conditions: [3H]-stearoyl-CoA, 20 min pre-incubation, 20 min reaction, 384- or 96-well format
Excerpt: Another measure of SCD activity was introduced by Talamo and Bloch in 1969 [Talamo & Bloch (1969) Anal. Biochem. 29, 300-304]. This method is based on the quantification of a second product of the desaturase reaction, i.e. the water molecule that is released in the desaturase reaction. The quantification is based on the use of a long chain acyl-CoA substrate, e.g. stearoyl-CoA, that is specifically labeled with tritium in positions 9 and 10 of the carbon chain such that the released water is also tritiated ([^3H]-H2O). The remaining [^3H]-stearoyl-CoA as well as the product [^3H]-oleyl-CoA must then be separated from the solution before the tritiated water content can be measured by means of liquid scintillation. Talamo and Bloch acid precipitated the long chain acyl-CoAs followed by filtration to achieve this separation, but this separation can also be achieved by means of centrifugation instead of filtration [Johnson & Guhr (1971) Lipids 6, 78-84]. An alternative procedure that involves precipitation by ethanol and activated charcoal followed by centrifugation has also been described [Shanklin and Somerville (1991) Proc. Natl. Acad. Sci. USA 88, 2510-2514]. Based on these studies it is clear that near perfect separation is required for optimal assay performance. When applying this assay it is important to recognize that the apparent desaturation rate is impacted by isotope effects as described by Johnson and Gurr in 1971 [Johnson & Guhr (1971) Lipids 6, 78-84]. Thus whereas the assay serves as an excellent measure of relative SCD activity it must be calibrated using other methods when absolute measures of enzyme activity are needed. The pros and cons of this assay have also been summarized in the literature [Gurr & Robinson (1972) Anal. Biochem. 47, 146-156]. An abundant source of stearoyl-CoA desaturase activity can be found in microsomal preparations from the liver of rats that have been subjected to a fasting-refeeding procedure on a low fat/high carbohydrate diet [reviewed in Ntambi (1999) J. Lipid Res. 40, 1549-1558]. However, microsomal preparations are not a pure source of SCD activity and this means that the added stearoyl-CoA substrate is subject also to other enzymatic processes. It is therefore essential to include reagents that allow regeneration of the stearoyl-CoA substrate as described by Bertram and Erwin [Bertram & Erwin (1981) J. Protozool. 8, 127-131].
The tritium release assay for the measurement of SCD activity is thus well documented in the literature. Descriptions on how these finding have been used to produce standard screening assays in 96-well plates are also available [Brownlie, Hayden, Attie, Ntambi, Gray-Keller, & Miyazaki (2001) WO 01/62954; Wu, Gallipoli, Gallagher, & Gardell (2004) WO 2004/04776]. […]

SMILES | IC50 [nM]
COc1cccc(Cc2c(C)nc3c(C(=O)NCCNC(C)=O)cnn3c2C)c1 [Example 8, N-[2-(Acetylamino)ethyl]-6-(3-methoxybenzyl)-5,7-dimethylpyrazolo-[1,5-a]pyrimidine-3-carboxamide] | 830 ± 240
CCOCCCNC(=O)c1cnn2c(C)c(Cc3cccc(F)c3)c(C)nc12 [Example 24, N-(3-ethoxypropyl)-6-(3-fluorobenzyl)-5,7-dimethylpyrazolo[1,5-a]-pyrimidine-3-carboxamide] | 700 ± 110
Cc1nc2c(C(=O)NCC3CCCO3)cnn2c(C)c1Cc1cccc(Br)c1 (stereo not shown) [6-(3-bromobenzyl)-5,7-dimethyl-N-(tetrahydrofuran-2-ylmethyl)pyrazolo[1,5-a]pyrimidine-3-carboxamide] | 140 ± 67
COCCNC(=O)c1cnn2c(C)c(Cc3ccccc3)c(C)nc12 [Example 1, 6-benzyl-N-(2-methoxyethyl)-5,7-dimethylpyrazolo[1,5-a]pyrimidine-3-carboxamide] | 1000 ± 400
